This series is described as follows: Relative humidity (RH) study, visual assessment in double-vial relative humidity chambers. It counts as physicochemical. To be noted: approximately 36 hours. The protocol:
Relative Humidity (RH): An RH study was conducted to determine appropriate handling conditions for amorphous asenapine maleate. Samples of Batch A1 were placed in double-vial relative humidity chambers at 3.4% RH, 8.2% RH and 22.5% RH and were visually assessed after approximately 36 hours.

Counter-ions that a name gives are not always drawn.

Take `CN1C[C@@H]2c3ccccc3Oc3ccc(Cl)cc3[C@H]2C1` (relative stereo) [Batch A1, trans-5-chloro-2-methyl-2,3,3a,12b-tetrahydro-1H-dibenz[2,3:6,7]oxepino[4,5-c]pyrrole maleate]: the “physical state after storage at controlled relative humidity (visual assessment)” value is “remained solid” (3.4% RH), “remained solid” (8.2% RH) and “deliquesced” (22.5% RH).
